From ChEMBL document CHEMBL1201862, “PubChem BioAssay data set” (2004)
Active and inactive are the calls of the source.

Assays:
Assay type in all cases: functional
[1] = target: Dual specificity protein kinase CLK4 (Homo sapiens, UniProt Q9HAZ1)
[2] = target: T1, Serine/threonine-protein kinase TBK1 (Homo sapiens, UniProt Q9UHD2); assay: Navigating the Kinome. Panel member name: TBK1
T1 sequence (Q9UHD2 whole entry): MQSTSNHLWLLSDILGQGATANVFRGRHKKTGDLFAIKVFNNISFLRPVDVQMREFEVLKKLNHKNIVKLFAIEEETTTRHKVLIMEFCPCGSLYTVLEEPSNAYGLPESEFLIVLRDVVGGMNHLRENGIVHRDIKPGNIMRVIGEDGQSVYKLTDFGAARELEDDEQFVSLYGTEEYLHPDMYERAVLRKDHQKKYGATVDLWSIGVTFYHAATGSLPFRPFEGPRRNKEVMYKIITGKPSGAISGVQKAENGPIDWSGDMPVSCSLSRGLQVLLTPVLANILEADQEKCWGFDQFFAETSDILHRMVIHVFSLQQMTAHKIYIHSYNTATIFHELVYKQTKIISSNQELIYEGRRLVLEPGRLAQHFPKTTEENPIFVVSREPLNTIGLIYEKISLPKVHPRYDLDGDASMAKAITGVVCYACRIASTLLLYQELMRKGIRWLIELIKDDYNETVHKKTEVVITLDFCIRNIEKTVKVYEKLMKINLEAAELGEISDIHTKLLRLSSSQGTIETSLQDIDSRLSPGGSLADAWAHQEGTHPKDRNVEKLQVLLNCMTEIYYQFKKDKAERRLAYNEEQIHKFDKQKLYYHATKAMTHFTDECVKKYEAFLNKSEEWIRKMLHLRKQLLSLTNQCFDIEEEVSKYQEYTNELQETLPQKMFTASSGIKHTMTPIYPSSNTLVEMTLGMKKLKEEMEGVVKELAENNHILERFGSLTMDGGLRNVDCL

[3] = target: Calcium/calmodulin-dependent protein kinase type II subunit alpha (Homo sapiens, UniProt Q9UQM7); assay: Navigating the Kinome. Panel member name: CAMK2A
Calcium/calmodulin-dependent protein kinase type II subunit alpha, sequence (Q9UQM7 whole entry): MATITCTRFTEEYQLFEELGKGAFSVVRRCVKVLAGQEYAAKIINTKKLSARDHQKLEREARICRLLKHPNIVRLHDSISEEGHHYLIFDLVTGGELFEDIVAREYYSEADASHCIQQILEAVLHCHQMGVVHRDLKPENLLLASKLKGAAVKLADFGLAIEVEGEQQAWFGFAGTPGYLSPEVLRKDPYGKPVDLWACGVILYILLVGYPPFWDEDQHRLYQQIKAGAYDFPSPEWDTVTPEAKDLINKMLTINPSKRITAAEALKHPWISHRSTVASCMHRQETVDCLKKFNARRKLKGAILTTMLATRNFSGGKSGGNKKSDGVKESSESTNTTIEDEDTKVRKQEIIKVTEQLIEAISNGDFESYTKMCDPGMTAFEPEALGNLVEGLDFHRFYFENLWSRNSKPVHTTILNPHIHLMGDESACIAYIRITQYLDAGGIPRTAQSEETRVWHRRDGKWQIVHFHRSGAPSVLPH

[4] = target: T2, Tyrosine-protein kinase JAK3 (Homo sapiens, UniProt P52333)
T2 sequence (P52333 whole entry): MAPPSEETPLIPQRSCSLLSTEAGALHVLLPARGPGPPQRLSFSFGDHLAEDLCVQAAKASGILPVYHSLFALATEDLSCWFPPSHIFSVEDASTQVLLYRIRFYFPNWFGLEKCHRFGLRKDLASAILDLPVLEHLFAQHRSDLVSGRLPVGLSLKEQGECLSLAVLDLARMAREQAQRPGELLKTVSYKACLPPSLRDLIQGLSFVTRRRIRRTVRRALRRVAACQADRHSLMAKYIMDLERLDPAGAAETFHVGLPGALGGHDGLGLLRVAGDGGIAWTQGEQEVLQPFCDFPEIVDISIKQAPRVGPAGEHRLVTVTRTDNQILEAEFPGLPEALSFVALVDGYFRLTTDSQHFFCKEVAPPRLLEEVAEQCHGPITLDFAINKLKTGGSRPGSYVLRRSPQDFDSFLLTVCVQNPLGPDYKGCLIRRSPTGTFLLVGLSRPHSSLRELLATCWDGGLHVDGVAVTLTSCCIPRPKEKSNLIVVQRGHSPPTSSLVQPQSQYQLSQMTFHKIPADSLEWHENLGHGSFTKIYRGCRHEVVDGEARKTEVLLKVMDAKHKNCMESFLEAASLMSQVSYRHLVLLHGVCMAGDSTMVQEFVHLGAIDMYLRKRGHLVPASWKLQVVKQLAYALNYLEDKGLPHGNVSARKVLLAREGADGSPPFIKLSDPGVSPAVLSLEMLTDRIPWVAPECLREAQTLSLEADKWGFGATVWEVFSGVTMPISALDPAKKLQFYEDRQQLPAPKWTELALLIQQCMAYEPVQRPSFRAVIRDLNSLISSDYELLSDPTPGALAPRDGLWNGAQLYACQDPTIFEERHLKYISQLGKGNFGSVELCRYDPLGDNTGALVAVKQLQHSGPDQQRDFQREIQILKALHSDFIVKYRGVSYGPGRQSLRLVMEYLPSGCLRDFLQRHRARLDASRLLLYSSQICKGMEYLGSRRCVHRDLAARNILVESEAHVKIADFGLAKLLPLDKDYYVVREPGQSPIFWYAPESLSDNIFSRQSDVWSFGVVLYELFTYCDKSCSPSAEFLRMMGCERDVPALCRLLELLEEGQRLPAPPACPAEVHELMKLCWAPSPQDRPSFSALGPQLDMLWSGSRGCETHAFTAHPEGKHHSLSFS

[5] = target: T3, Serine/threonine-protein kinase TAO1 (Homo sapiens, UniProt Q7L7X3)
T3 sequence (Q7L7X3 whole entry): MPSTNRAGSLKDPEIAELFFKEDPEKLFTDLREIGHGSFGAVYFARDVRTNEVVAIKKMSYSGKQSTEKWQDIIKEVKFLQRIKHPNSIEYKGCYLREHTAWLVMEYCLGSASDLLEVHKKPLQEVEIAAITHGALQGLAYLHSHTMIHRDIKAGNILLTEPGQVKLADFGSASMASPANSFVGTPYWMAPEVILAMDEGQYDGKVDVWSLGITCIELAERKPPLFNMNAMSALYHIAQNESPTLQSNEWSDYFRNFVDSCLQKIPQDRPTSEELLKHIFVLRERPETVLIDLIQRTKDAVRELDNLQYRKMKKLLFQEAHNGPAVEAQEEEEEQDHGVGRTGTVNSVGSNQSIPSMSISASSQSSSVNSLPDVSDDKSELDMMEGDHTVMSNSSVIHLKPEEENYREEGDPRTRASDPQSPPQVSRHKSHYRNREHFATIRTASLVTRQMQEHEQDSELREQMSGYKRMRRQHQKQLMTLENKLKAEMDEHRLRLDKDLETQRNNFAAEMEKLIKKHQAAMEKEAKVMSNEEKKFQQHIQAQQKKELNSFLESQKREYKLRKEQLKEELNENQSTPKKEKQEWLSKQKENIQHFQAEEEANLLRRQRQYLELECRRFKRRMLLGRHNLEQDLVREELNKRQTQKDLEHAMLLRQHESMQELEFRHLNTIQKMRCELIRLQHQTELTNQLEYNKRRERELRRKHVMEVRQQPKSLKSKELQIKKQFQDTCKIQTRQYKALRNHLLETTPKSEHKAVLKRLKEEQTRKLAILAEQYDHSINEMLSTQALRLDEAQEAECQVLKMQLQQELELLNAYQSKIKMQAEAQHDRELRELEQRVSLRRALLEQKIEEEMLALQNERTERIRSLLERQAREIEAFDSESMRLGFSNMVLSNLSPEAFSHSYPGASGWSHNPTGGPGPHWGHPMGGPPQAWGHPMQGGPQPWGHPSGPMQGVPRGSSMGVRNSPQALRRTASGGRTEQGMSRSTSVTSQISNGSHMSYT

Dual specificity protein kinase CLK4, sequence (Q9HAZ1 whole entry): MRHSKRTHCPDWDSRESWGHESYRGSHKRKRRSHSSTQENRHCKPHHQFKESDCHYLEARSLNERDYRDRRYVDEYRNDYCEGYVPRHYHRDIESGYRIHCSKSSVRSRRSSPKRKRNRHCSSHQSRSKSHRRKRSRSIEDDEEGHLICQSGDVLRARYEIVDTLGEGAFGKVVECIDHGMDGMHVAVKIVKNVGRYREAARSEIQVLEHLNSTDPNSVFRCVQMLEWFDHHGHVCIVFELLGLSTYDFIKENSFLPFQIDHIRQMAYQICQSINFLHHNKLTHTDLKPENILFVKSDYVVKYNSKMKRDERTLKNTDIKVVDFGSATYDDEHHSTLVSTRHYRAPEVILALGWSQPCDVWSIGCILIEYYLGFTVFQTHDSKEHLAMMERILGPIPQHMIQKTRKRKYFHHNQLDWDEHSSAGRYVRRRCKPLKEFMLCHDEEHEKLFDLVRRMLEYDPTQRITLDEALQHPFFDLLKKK

| SMILES | Ki [1] | Ki [2] | Ki [3] | Ki [4] | Ki [5] |
| --- | --- | --- | --- | --- | --- |
| COc1cccc(C(C)NC(=O)c2sc(-c3ccncc3)nc2C)c1 (stereo not given) | > 2.51 µM (inactive) | > 3.16 µM (inactive) | > 3.98 µM (inactive) | > 5.01 µM (inactive) | > 6.31 µM (inactive) |
| CCCCC(=O)Nc1cc(-c2c[nH]c3ncccc23)cc(Cl)n1 | 0.0126 µM (active) | > 3.16 µM (inactive) | > 7.94 µM (inactive) | > 5.01 µM (inactive) | > 6.31 µM (inactive) |
| Oc1ccc(-c2nc(-c3ccncc3)c(-c3ccc(F)cc3)[nH]2)cc1 [SB-202190] | 2.51 µM (active) | > 3.16 µM (inactive) | > 3.98 µM (inactive) | > 5.01 µM (inactive) | > 6.31 µM (inactive) |
